Peptide text beside a SMILES is read from it.
B2: GST–AIP (natural protein, human, UniProt O00170 1-330, looked up)
chain: MADIIARLREDGIQKRVIQEGRGELPDFQDGTKATFHYRTLHSDDEGTVLDDSRARGKPMELIIGKKFKLPVWETIVCTMREGEIAQFLCDIKHVVLYPLVAKSLRNIAVGKDPLEGQRHCCGVAQMREHSSLGHADLDALQQNPQPLIFHMEMLKVESPGTYQQDPWAMTDEEKAKAVPLIHQEGNRLYREGHVKEAAAKYYDAIACLKNLQMKEQPGSPEWIQLDQQITPLLLNYCQCKLVVEEYYEVLDHCSSILNKYDDNVKAYFKRGKAHAAVWNAQEAQADFAKVLELDPALAPVVSRELRALEARIRQKDEEDKARFRGIFSH
notes: bait of the GST pull-down; source: E. coli BL21, purified (GSTrap 4B, PD-10)
B3: GST–FKBP51 (natural protein, human, UniProt Q13451 1-457, looked up)
chain: MTTDEGAKNNEESPTATVAEQGEDITSKKDRGVLKIVKRVGNGEETPMIGDKVYVHYKGKLSNGKKFDSSHDRNEPFVFSLGKGQVIKAWDIGVATMKKGEICHLLCKPEYAYGSAGSLPKIPSNATLFFEIELLDFKGEDLFEDGGIIRRTKRKGEGYSNPNEGATVEIHLEGRCGGRMFDCRDVAFTVGEGEDHDIPIGIDKALEKMQREEQCILYLGPRYGFGEAGKPKFGIEPNAELIYEVTLKSFEKAKESWEMDTKEKLEQAAIVKEKGTVYFKGGKYMQAVIQYGKIVSWLEMEYGLSEKESKASESFLLAAFLNLAMCYLKLREYTKAVECCDKALGLDSANEKGLYRRGEAQLLMNEFESAKGDFEKVLEVNPQNKAARLQISMCQKKAKEHNERDRRIYANMFKKFAEQDAKEEANKAMGKKTSEGVTNEKGTDSQAMEEEKPEGHV
notes: as for B2

Key:
Tom20–Tom70 interaction = experiment: Mammalian two-hybrid assay (luciferase) of Tom20–Tom70 interaction in HEK293 cells; assay type: cell-based, human; conditions: peptide 20 μM added 4 h after transfection, 48 h, n = 3
Description: (§1) Tom70 sequence was PCR amplified and subcloned into pACT vector of CheckMate™ mammalian two‐hybrid system (Promega, Madison, WI, USA) using SalI/NotI restriction sites, and Hsp90 and Tom20 DNA sequences were PCR amplified and subcloned into pBIND vector using SalI/NotI restriction sites. Tom70‐pACT/Hsp90‐pBIND and Tom70‐pACT/Tom20‐pBIND were co‐transfected with pLuc plasmid in a 1 : 1 : 1 molar ratio into HEK293 cells using Lipofectamine 3000 transfection reagent (Invitrogen, Carlsbad, CA, USA) according to the manufacturer's protocol. Triplicate samples in 96‐well cell culture plates Corning (Tewskbury, MA, USA) were used in each experiment. Hsp90, R9–Hsp90, Tom20 and R9–Tom20 peptides at concentration 20 μM were added 4 h after transfection. HEK293 cells were cultivated for 48 h, washed twice with PBS and lysed with PBS containing 1% Triton X‐100. Luciferase expression was detected using a luciferase assay kit from BioThema (Huddinge, Sweden) on a 96‐well plate reader from Perkin Elmer (Upplands Väsby, Stockholm, Sweden).
(§2) In subsequent experiments, non‐fluorescent peptides were used. […] Cell impermeable Hsp90 peptide served as a treatment control.

Hsp90–Tom70 interaction [1] = experiment: Mammalian two-hybrid assay (luciferase) of Hsp90–Tom70 interaction in HEK293 cells; assay type: cell-based, human; conditions: peptide 20 μM added 4 h after transfection, 48 h, n = 3
Description: as §1, §2

HEK293 cells = conditions: N-terminally fluorescein-labeled peptides, 20 μM, fluorescence imaging
Description: (§3) P < 0.05 was considered to be statistically significant. Data are presented as mean ± SEM.

Hsp90–Tom70 interaction [2] = experiment: Proximity ligation assay (PLA) of Hsp90–Tom70 interaction in HEK293 cells; assay type: cell-based, human; conditions: non-fluorescent peptide, n = 3
Description: as §3, §2

FKBP51 [3] = conditions: cited from earlier work
Description: Here in this study, we systematically searched the human protein database (https://www.ncbi.nlm.nih.gov/protein/) for the protein products containing Hsp70/Hsp90‐like sequence signatures at their C terminus. Sev ...

FKBP51 [4] = biological target: T1, FKBP51 (Homo sapiens, UniProt Q13451); experiment: Dot-blot competition assay: HRP-conjugated peptide vs unlabeled peptide on immobilized FKBP51; conditions: HRP-conjugated peptide on immobilized dcTPR proteins
T1 sequence (Q13451 1-457): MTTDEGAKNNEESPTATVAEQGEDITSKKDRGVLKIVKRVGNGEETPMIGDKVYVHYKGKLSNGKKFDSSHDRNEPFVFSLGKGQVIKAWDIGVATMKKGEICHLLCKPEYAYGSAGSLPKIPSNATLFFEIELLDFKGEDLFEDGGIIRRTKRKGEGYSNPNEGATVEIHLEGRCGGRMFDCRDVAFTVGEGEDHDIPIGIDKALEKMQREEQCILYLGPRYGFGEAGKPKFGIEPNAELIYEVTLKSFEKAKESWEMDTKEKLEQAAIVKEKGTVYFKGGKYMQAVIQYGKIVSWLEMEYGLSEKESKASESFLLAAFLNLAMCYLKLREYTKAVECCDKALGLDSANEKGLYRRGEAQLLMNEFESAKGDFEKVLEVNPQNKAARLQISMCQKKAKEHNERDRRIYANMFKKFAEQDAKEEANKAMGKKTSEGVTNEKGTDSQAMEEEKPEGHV

GST–AIP = biological target: B2; experiment: pull-down; GST–AIP and GST–FKBP51 as bait, purified full-length and truncated proteins as prey; bound proteins probed by western blot with their antibodies; conditions: both partners purified
GST–FKBP51 = biological target: B3; experiment: as above; conditions: both partners purified
NADSYN1 = biological target: T2, NADSYN1 (human, UniProt Q6IA69 1-706); experiment: as above; conditions: both partners purified
T2 construct: prey of the pull-down; also called Nicotinamide adenine dinucleotide synthase 1; source: E. coli BL21, purified as GST fusion (GSTrap), GST removed with PreScission protease
T2 sequence (looked up): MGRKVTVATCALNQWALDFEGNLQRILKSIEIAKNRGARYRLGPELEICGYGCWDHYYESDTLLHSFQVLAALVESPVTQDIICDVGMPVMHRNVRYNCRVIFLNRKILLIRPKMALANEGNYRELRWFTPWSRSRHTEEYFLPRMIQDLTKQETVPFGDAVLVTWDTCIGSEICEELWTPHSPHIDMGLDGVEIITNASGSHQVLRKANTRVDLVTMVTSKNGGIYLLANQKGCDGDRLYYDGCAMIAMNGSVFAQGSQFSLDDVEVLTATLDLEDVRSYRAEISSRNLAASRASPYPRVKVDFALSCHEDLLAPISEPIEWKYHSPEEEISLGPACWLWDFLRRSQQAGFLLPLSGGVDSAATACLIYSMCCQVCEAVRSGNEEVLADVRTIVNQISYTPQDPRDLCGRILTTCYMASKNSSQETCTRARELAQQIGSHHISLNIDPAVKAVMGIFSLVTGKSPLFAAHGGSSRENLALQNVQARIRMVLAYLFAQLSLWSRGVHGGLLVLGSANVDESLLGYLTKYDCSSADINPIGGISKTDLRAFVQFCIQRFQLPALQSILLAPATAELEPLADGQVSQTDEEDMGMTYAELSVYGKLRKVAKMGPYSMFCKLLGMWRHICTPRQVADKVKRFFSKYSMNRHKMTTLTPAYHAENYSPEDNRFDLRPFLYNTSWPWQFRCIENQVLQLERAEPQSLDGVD

DNAAF2 = biological target: T3, DNAAF2 (human, UniProt Q9NVR5 1-837); experiment: as above; conditions: both partners purified
T3 construct: prey of the pull-down; also called dynein axonemal assembly factor 2; source: E. coli BL21, purified as GST fusion (GSTrap), GST removed with PreScission protease
T3 sequence (looked up): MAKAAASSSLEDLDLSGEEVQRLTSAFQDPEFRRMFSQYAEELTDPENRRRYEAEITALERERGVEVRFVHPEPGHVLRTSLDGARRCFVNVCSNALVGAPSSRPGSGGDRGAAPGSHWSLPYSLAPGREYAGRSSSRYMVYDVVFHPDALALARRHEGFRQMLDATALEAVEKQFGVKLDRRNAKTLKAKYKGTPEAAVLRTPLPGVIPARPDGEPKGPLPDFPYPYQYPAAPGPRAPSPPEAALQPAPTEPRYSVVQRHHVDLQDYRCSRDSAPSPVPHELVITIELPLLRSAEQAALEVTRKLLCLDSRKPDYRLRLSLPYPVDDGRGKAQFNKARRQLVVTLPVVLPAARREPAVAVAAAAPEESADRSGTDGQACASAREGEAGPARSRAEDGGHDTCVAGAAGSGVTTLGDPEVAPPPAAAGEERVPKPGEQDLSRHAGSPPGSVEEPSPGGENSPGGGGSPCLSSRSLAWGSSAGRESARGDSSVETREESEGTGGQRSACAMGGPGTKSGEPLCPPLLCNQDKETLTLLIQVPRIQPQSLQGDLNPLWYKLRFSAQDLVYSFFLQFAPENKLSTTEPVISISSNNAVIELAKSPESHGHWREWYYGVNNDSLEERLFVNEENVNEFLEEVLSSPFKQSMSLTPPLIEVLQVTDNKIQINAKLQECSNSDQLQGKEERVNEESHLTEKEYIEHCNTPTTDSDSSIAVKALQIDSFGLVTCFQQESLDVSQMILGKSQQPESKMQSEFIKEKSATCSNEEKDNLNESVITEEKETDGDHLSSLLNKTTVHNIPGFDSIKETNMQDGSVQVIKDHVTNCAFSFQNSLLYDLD

Question: Which results are given for `CC(C)C[C@H](NC(=O)[C@H](CO)NC(=O)[C@H](CCC(N)=O)NC(=O)[C@H](C)NC(=O)[C@H](CCCNC(=N)N)NC(=O)[C@H](CCCNC(=N)N)NC(=O)[C@H](CCCNC(=N)N)NC(=O)[C@H](CCCNC(=N)N)NC(=O)[C@H](CCCNC(=N)N)NC(=O)[C@H](CCCNC(=N)N)NC(=O)[C@H](CCCNC(=N)N)NC(=O)[C@H](CCCNC(=N)N)NC(=O)[C@@H](N)CCCNC(=N)N)C(=O)N[C@@H](C)C(=O)N[C@@H](CCC(=O)O)C(=O)N[C@@H](CC(=O)O)C(=O)N[C@@H](CC(=O)O)C(=O)N[C@H](C(=O)N[C@@H](CCC(=O)O)C(=O)O)C(C)C` [R9–Tom20] (H-RRRRRRRRRAQSLAEDDVE-OH)?
Answer: inhibition of Tom20–Tom70 interaction (mammalian two-hybrid, luciferase) (Tom20–Tom70 interaction): sensitive; inhibition of Hsp90–Tom70 interaction (mammalian two-hybrid, luciferase) (Hsp90–Tom70 interaction [1]): inhibited only by addition of R9–Hsp90 peptide; fluorescein staining of HEK293 cells (peptide translocation into the cells) (HEK293 cells): resulted in HEK293 cells staining; decrease of Hsp90–Tom70 interaction signal (PLA) (Hsp90–Tom70 interaction [2]): failed to inhibit

Question: For “H-DDDDDDDDDD-OH [poly‐D, reference compound]”, which “interaction with FKBP51” value (FKBP51 [3]) is on record?
Answer: no interaction was observed

Question: And the “signal of HRP-conjugated peptide in dot-blot binding assay” value (FKBP51 [4])?
Answer: did not produce any signal

B1: Bcl-G (natural protein, human, UniProt Q9BZR8 1-327, looked up)
chain: MCSTSGCDLEEIPLDDDDLNTIEFKILAYYTRHHVFKSTPALFSPKLLRTRSLSQRGLGNCSANESWTEVSWPCRNSQSSEKAINLGKKKSSWKAFFGVVEKEDSQSTPAKVSAQGQRTLEYQDSHSQQWSRCLSNVEQCLEHEAVDPKVISIANRVAEIVYSWPPPQATQAGGFKSKEIFVTEGLSFQLQGHVPVASSSKKDEEEQILAKIVELLKYSGDQLERKLKKDKALMGHFQDGLSYSVFKTITDQVLMGVDPRGESEVKAQGFKAALVIDVTAKLTAIDNHPMNRVLGFGTKYLKENFSPWIQQHGGWEKILGISHEEVD
notes: Bcl-2-like protein 14 (Bcl-G), human, full-length cDNA clone; also called Bcl-2-like protein 14; source: E. coli BL21, purified as GST fusion (GSTrap), GST removed with PreScission protease
Question: Does B1 bind (GST–AIP)?
Answer: binds

Question: Does B1 bind (GST–FKBP51)?
Answer: binds

Question: Does B2 bind (NADSYN1)?
Answer: binds

Question: Does B2 bind (DNAAF2)?
Answer: binds

Question: Does B3 bind (NADSYN1)?
Answer: binds

Question: Does B3 bind (DNAAF2)?
Answer: binds
